Reference: US20230167118A1, “DEGRADATION OF BRUTON'S TYROSINE KINASE (BTK) BY CONJUGATION OF BTK INIDBITORS WITH E3 LIGASE LIGAND AND METHODS OF USE” (BEIGENE, LTD., priority 2020, published 2023)
pIC50: −log10 of the molar value.

Columns and labels:
HEK-293 cells = test: HEK-293 Cytotoxicity Assay (CellTiter-Glo); assay type: cell-based; conditions: Homo sapiens, HEK293, 72 h incubation, CellTiter-Glo luminescence
In short: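 HEK-293 cells treated 72 h with 8 concentrations (4-fold dilutions, 0.2% DMSO final). Viability read by CellTiter-Glo luminescence; IC50 from four-parameter logistic fit of % inhibition.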

BTK = target: T1, BTK (Homo sapiens, UniProt Q06187); test: Cell Degradation: BTK degradation in TMD-8 cells, HTRF assay; assay type: cell-based; conditions: 6 h treatment, IC50 (DC50) of BTK degradation
T1 construct: High control=Cell group with added DMSO and without compound, indicating microplate readings without BTK degradation; endogenous in cells; host or cells: TMD-8 cells
T1 sequence (Q06187 whole entry): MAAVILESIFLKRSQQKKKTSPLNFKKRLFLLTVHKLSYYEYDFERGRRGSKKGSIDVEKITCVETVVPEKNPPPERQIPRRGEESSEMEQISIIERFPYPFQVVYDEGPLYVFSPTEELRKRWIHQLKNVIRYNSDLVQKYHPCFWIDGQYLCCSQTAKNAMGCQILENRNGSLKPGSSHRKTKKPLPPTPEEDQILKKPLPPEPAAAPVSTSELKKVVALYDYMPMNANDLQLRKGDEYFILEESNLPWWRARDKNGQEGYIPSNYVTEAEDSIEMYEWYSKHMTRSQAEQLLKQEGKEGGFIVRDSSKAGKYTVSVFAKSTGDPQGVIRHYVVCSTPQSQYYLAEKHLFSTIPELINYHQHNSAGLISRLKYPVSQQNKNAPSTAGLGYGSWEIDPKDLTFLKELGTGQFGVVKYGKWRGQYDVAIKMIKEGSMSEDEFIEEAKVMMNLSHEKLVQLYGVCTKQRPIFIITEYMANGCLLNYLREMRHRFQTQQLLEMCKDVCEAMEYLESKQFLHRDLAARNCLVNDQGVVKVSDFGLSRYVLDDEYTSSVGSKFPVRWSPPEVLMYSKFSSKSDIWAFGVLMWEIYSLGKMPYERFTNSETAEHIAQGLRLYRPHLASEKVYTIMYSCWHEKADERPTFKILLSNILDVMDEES
In short: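 TMD-8 cells treated 6 h with 8-dose 6-fold dilutions in 0.2% DMSO, then lysed and BTK quantified by HTRF (665/620 nm). Degradation % normalised to high/low controls; DC50 from four-parameter fit, Dmax as maximal degradation.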

Structure (SMILES) | pIC50 (HEK-293 cells) | DC50 (BTK) [nM]
C[C@@H](NC(=O)c1nc(C(C)(C)C)no1)c1ccc(-c2ncnc3[nH]c(-c4ccc(N5CCN(CC6CCN(c7ccc(N8CCC(=O)NC8=O)cc7)CC6)CC5)cn4)cc23)cc1F [Example 154, (R)-3-(tert-butyl)-N-(1-(4-(6-(5-(4-((1-(4-(2,4-dioxotetrahydropyrimidin-1(2H)-yl)phenyl)piperidin-4-yl)methyl)piperazin-1-yl)pyridin-2-yl)-7H-pyrrolo[2,3-d]pyrimidin-4-yl)-2-fluorophenyl)ethyl)-1,2,4-oxadiazole-5-carboxamide] | < 5.00 | 0.79
Cc1cc(-c2ncnc3[nH]c(-c4ccc(N5CCN(CC6CCN(c7ccc(N8CCC(=O)NC8=O)cc7)CC6)CC5)cc4)cc23)ccc1CNC(=O)c1cnc(C(C)(C)C)s1 [Example 47, 2-(tert-butyl)-N-(4-(6-(4-(4-((1-(4-(2,4-dioxotetrahydropyrimidin-1(2H)-yl)phenyl)piperidin-4-yl)methyl)piperazin-1-yl)phenyl)-7H-pyrrolo[2,3-d]pyrimidin-4-yl)-2-methylbenzyl)thiazole-5-carboxamide] | < 5.00 | 1.8
Cc1cc(-c2ncnc3[nH]c(-c4ccc(N5CCN(CC6CCN(c7ccc(N8CCC(=O)NC8=O)cc7)CC6)CC5)cc4)cc23)ccc1[C@@H](C)NC(=O)c1nc(C(C)(C)C)no1 [Example 20, (R)-3-(tert-butyl)-N-(1-(4-(6-(4-(4-((1-(4-(2,4-dioxotetrahydropyrimidin-1(2H)-yl)phenyl)piperidin-4-yl)methyl)piperazin-1-yl)phenyl)-7H-pyrrolo[2,3-d]pyrimidin-4-yl)-2-methylphenyl)ethyl)-1,2,4-oxadiazole-5-carboxamide] | < 5.00 | 1.4
Cc1cc(-c2ncnc3[nH]c(-c4c(C)nn(C5CCN(CC6CCN(c7ccc(N8CCC(=O)NC8=O)cc7)CC6)CC5)c4C)cc23)ccc1[C@@H](C)NC(=O)c1noc(C(C)(C)C)n1 [Example 62, (R)-5-(tert-butyl)-N-(1-(4-(6-(1-(1-((1-(4-(2,4-dioxotetrahydropyrimidin-1(2H)-yl)phenyl)piperidin-4-yl)methyl)piperidin-4-yl)-3,5-dimethyl-1H-pyrazol-4-yl)-7H-pyrrolo[2,3-d]pyrimidin-4-yl)-2-methylphenyl)ethyl)-1,2,4-oxadiazole-3-carboxamide] | < 5.00 | 0.53
Cc1cc(N2CCC(CN3CCN(c4ccc(-c5cc6c(-c7ccc([C@@H](C)NC(=O)c8nc(C(C)(C)C)no8)c(F)c7)ncnc6[nH]5)cn4)CC3)CC2)ccc1N1CCC(=O)NC1=O [Example 52, (R)-3-(tert-butyl)-N-(1-(4-(6-(6-(4-((1-(4-(2,4-dioxotetrahydropyrimidin-1(2H)-yl)-3-methylphenyl)piperidin-4-yl)methyl)piperazin-1-yl)pyridin-3-yl)-7H-pyrrolo[2,3-d]pyrimidin-4-yl)-2-fluorophenyl)ethyl)-1,2,4-oxadiazole-5-carboxamide] | < 5.00 | 1.7
Cc1cc(-c2ncnc3[nH]c(-c4ccc(C5=CCN(CC6CCN(c7ccc(N8CCC(=O)NC8=O)cc7)CC6)C5)nc4)cc23)ccc1[C@@H](C)NC(=O)c1nc(C(C)(C)C)no1 [Example 159, (R)-3-(tert-butyl)-N-(1-(4-(6-(6-(1-((1-(4-(2,4-dioxotetrahydropyrimidin-1(2H)-yl)phenyl)piperidin-4-yl)methyl)-2,5-dihydro-1H-pyrrol-3-yl)pyridin-3-yl)-7H-pyrrolo[2,3-d]pyrimidin-4-yl)-2-methylphenyl)ethyl)-1,2,4-oxadiazole-5-carboxamide] | < 5.00 | 0.93
Cc1cc(-c2ncnc3[nH]c(-c4ccc(C5CCN(CCC6CCN(c7ccc(N8CCC(=O)NC8=O)c(C)c7)CC6)CC5)cc4)cc23)ccc1CNC(=O)c1nc(C(C)(C)C)no1 [Example 22, 3-(tert-butyl)-N-(4-(6-(4-(1-(2-(1-(4-(2,4-dioxotetrahydropyrimidin-1(2H)-yl)-3-methylphenyl)piperidin-4-yl)ethyl)piperidin-4-yl)phenyl)-7H-pyrrolo[2,3-d]pyrimidin-4-yl)-2-methylbenzyl)-1,2,4-oxadiazole-5-carboxamide] | 5.81 | 2.3
